Earlier results as cited in patent US9145409B2, “Benzhydryl derivatives” (CHIESI FARMACEUTICI S.p.A., priority 2013, dated 2015).

Assays:
[1] = tested on: smoking model of COPD in mice
[2] = tested on: COPD patients
[3] = COPD patients, oral, given over 4 weeks
[4] = clinical trials, 500 mg once daily given over 12 months
[5] = patients with severe disease, frequent exacerbations and mucus hypersecretion

Compound: O=C(Nc1c(Cl)cncc1Cl)c1ccc(OC(F)F)c(OCC2CC2)c1 [roflumilast]
- lung inflammation and emphysema [1]: inhibits lung inflammation and emphysema
- CXCL8 concentrations in sputum [2, 3]: significantly reduces
- reduction of the numbers of neutrophils in sputum [2, 3]: 36%
- clinical benefit as add-on ([2]; added to salmeterol or tiotropium): provides clinical benefit
- exacerbations and quality of life [2, 4]: little effect in reducing exacerbations or improving quality of life
- lung function [2, 4]: improved lung function in COPD patients to a small extent
- improvement of FEV 1 [2, 5]: approximately 50 mL
- reduction of exacerbation [2, 5]: about 15%
